{"source": "patent US20050148593A1", "about": "“Compounds, compositions, and methods” (priority 2003, published 2005)", "origin": "cited, not measured here", "data": [{"tested_on": "A549 cells", "conditions": "data provided by National Cancer Institute, Developmental Therapeutic Program", "units": {"GI50": "nM"}, "values": [{"smiles": "O=c1[nH]cc(F)c(=O)[nH]1", "note": "[5-fluorouracil]", "GI50": 1000}, {"smiles": "COc1cccc2c1C(=O)c1c(O)c3c(c(O)c1C2=O)C[C@@](O)(C(=O)CO)C[C@@H]3O[C@H]1C[C@H](N)[C@H](O)[C@H](C)O1", "note": "[doxorubicin]", "GI50": 63}, {"smiles": "NC(=O)NO", "note": "[hydroxyurea]", "GI50": 500000}, {"smiles": "CC(=O)O[C@H]1C(=O)[C@@]2(C)[C@H]([C@H](OC(=O)c3ccccc3)[C@]3(O)C[C@H](OC(=O)[C@H](O)[C@@H](NC(=O)c4ccccc4)c4ccccc4)C(C)=C1C3(C)C)[C@]1(OC(C)=O)CO[C@@H]1C[C@@H]2O", "note": "[paclitaxel]", "GI50": 4}]}]}
